This note sets out measurements from ChEMBL document CHEMBL1140017, “Anti-AIDS agents 72. Bioisosteres (7-carbon-DCKs) of the potent anti-HIV lead DCK” (Bioorg Med Chem Lett, 2007).

One data set deals with H9. Description: Cytotoxicity against H9 cells assessed as growth inhibition. In kind it is cell-based. To be noted: Homo sapiens.
Data set [1] deals with Human immunodeficiency virus. Put plainly: Antiviral activity against HIV replication in H9 cells. In kind it is functional, organism-based. As to conditions: Human immunodeficiency virus 1, H9.
A short description of data set [2]: Therapeutic index, IC50 for H9 cells to EC50 for HIV. Format: cell-based. To be noted: human, read-out: Ratio IC50/EC50.

SMILES strings stand for the structures.

Take `Cc1cc(=O)oc2c3c(ccc12)CC(C)(C)[C@H](OC(=O)C12CCC(C)(C(=O)O1)C2(C)C)[C@@H]3OC(=O)C12CCC(C)(C(=O)O1)C2(C)C` (stereo partly specified): in the data set with H9, the 50% inhibitory concentration (IC50) was > 39400 nM. The EC50 in data set [1] was < 390 nM. In addition, in data set [2], the selectivity ratio was > 100.
`Cc1cn([C@H]2C[C@H](N=[N+]=[N-])[C@@H](CO)O2)c(=O)[nH]c1=O` [ZIDOVUDINE]: the midpoint of the response in data set [1], the EC50, lay at 13.7 nM. In addition, the selectivity ratio in data set [2] was determined as 36500.
Regarding `Cc1cc(=O)oc2c3c(ccc12)CC[C@H](OC(=O)C12CCC(C)(C(=O)O1)C2(C)C)[C@@H]3OC(=O)C12CCC(C)(C(=O)O1)C2(C)C` (stereo partly specified), in the data set on H9, the IC50 is 54400 nM. This compound also gave an EC50 in data set [1] of 83 nM. In data set [2], the selectivity ratio was 659.
The like results for `CC12CCC(C(=O)O[C@H]3CCc4ccc5ccc(=O)oc5c4[C@H]3OC(=O)C34CCC(C)(C(=O)O3)C4(C)C)(OC1=O)C2(C)C` (stereo partly specified) were, in that order, 57200 nM, 68 nM and 841.

The IC50 is the point on the concentration scale where inhibition reaches its midpoint. Usually EC50 stands for the concentration giving half of the maximal effect. Low values mean greater potency, high ones weaker potency.
